6 compounds from patent US20230312550A1, “N-(2-(4-CYANOTHIAZOLIDIN-3-YL)-2-OXOETHYL)-QUINOLINE-4-CARBOXAMIDES” (AstraZeneca AB, priority 2020, published 2023) can be followed below.

Data set [1] deals with human Fibroblast activation protein alpha (hFAP) (Homo sapiens (Human), UniProt Q12884). Description: hFAP inhibition assay (tight binders). Further: hFAP 2.4 pM. It is filed as biochemical. To be noted: Ala-Pro-AMC 20 μM, n = 1 or geometric mean n = 2-6. As for the experimental part: The plates were read on a PHERAstar® reader with excitation 340 nm and emission 460 nm. Data were analyzed in Genedata Screener®. IC50 values were determined by plotting % inhibition versus log compound concentration and using a one site dose response model.
Sequence of human Fibroblast activation protein alpha (hFAP) (Q12884 38-760): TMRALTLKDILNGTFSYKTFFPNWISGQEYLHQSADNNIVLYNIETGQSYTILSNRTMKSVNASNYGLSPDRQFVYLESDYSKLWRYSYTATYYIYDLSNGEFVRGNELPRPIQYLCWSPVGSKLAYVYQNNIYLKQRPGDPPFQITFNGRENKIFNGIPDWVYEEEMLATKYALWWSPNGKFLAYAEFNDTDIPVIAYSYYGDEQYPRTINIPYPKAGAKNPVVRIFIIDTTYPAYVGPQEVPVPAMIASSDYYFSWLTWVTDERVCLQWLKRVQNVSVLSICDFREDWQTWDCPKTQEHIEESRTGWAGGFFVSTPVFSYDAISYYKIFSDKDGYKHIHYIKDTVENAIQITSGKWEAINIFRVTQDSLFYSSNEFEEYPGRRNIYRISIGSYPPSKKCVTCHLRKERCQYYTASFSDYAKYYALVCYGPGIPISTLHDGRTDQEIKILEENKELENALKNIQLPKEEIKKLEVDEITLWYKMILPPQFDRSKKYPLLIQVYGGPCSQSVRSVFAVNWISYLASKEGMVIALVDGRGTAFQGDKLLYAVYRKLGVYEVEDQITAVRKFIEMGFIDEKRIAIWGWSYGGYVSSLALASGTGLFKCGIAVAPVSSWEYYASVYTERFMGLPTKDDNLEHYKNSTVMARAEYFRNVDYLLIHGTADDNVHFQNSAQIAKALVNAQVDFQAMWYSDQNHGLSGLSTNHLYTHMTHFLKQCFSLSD

Data set [2] is described as follows: Metabolic stability in human liver microsomes (HLM). The conditions noted are these: human, HLM CLint, n = 1 or average of n = 2-3.
Experimental: Metabolic stability in HLM was measured as described in J Comput Aided Mol Des 2015, 29, 795.
Another data set addresses hFAP (M39-A757) (Homo sapiens (Human), UniProt Q12884). Description: hFAP binding assay (surface plasmon resonance). To be noted: SPR, 20° C.; for hFAP Binding assay k(off) / hFAP Binding assay k(on): single cycle kinetics; for Kd: n = 1 or geometric mean n = 2-4.
In data set [3] the target is Prolyl endopeptidase, Prolyl Oligopeptidase (hPREP) (Homo sapiens (Human), UniProt P48147). Description: hPrep inhibition assay. The conditions noted are these: hPREP 0.6 nM, Z-Gly-Pro-amino-methylcoumarin 50 μM; read-out: PREP IC50. The data set is classed as biochemical. A digest of the protocol: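 Fluorogenic read-out (340 nm excitation, 460 nm emission) after 20 min at rt, using 50 μM final Z-Gly-Pro-aminomethylcoumarin and 0.6 nM final enzyme, following 15 min compound preincubation. Buffer pH 7.5 with glutathione and Triton X-100. IC50 via one-site model on % inhibition vs log concentration.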
Sequence of Prolyl endopeptidase, Prolyl Oligopeptidase (hPREP) (P48147 whole entry): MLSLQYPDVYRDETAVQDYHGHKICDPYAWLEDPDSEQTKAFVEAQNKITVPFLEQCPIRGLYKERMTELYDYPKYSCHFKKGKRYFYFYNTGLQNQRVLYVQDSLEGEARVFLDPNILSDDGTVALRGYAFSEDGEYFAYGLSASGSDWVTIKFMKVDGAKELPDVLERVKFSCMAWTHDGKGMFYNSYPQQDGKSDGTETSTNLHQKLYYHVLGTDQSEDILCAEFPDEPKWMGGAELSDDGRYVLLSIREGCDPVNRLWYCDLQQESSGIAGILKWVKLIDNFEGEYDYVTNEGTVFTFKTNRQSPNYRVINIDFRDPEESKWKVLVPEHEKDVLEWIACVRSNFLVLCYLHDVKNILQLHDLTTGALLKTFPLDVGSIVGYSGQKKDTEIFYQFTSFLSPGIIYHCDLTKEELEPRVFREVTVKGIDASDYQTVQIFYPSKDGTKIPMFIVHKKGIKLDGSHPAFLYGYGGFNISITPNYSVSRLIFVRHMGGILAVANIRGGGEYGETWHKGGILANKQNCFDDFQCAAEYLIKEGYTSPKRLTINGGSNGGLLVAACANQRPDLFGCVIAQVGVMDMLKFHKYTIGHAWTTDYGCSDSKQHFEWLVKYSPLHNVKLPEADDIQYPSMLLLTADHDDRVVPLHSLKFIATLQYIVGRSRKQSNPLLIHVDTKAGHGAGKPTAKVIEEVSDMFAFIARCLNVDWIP

A short description of the next data set: Kinetic solubility. The conditions noted are these: kinetic from dmso stock, Solubility, kinetic solubility; n = 1 or average of n = 2-3.
The nature of data set [4]: Metabolic stability in rat hepatocytes (rHep). The conditions noted are these: n = 1 or geometric mean of n = 2-3.

As usually defined, the IC50 is the point on the concentration scale where inhibition reaches its midpoint. A word on the microsomal CLint: it is the rate of metabolic loss divided by the concentration. As a reminder, the Kd is the free concentration of one partner at which half of the binding sites on the other are occupied at equilibrium, for simple one-to-one binding. The low end stands for tighter binding, the high end for weaker binding. What is called solubility is the dissolved amount per volume that the medium holds.

≈ marks a conversion by molar mass, not a printed value.

Sequence of hFAP (M39-A757) (Q12884 39-757): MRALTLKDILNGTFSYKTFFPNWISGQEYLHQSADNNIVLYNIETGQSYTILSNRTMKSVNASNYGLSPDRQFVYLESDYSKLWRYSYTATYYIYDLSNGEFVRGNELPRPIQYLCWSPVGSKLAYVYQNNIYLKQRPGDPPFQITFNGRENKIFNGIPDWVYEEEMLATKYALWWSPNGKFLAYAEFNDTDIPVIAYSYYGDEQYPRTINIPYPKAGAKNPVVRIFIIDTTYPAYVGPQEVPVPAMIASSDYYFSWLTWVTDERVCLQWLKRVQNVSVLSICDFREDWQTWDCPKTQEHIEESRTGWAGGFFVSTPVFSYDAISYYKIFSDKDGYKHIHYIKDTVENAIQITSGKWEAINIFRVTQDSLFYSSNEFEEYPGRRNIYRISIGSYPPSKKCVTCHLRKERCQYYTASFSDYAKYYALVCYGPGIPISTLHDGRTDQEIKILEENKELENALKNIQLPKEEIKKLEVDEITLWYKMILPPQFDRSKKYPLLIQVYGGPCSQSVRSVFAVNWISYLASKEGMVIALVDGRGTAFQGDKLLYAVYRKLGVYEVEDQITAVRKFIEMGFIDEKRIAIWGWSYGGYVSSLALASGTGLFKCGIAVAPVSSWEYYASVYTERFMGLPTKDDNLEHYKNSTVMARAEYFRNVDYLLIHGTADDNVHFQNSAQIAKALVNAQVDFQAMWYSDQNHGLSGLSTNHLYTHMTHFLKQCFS
Experimental for Kinetic solubility: Kinetic solubility was measured as described in Comput Aided Mol Des 2015, 29, 795.

Compound `COCC[C@@H]1COCCN1c1ccc2nccc(C(=O)NCC(=O)N3CSC[C@H]3C#N)c2c1` [Example 95, N-(2-((R)-4-Cyanothiazolidin-3-yl)-2-oxoethyl)-6-((R)-3-(2-methoxyethyl)-morpholino)quinoline-4-carboxamide] returned an IC50 in data set [1] of 0.16 nM. This compound came in with an intrinsic metabolic clearance (microsomal CLint) in data set [2] of 63 µL/min/mg. Moreover, at hFAP (M39-A757), the “hFAP Binding assay k(off)” value was found to be 0.000056 s⁻¹, the “hFAP Binding assay k(on)” value was 2900000 M⁻¹ s⁻¹ and the dissociation constant Kd was determined as 0.024 nM. In addition, the IC50 in data set [3] was 740 nM. This compound returned a solubility in the data set “Kinetic solubility” of 960 µM (≈ 451 µg/mL). The “rHep CLint” value in data set [4] was 13 μL/min/1E6.
Take `N#C[C@@H]1CSCN1C(=O)CNC(=O)c1ccnc2ccc(N3C[C@H]4CCC[C@@H](C3)O4)cc12` [Example 194, 6-((1R,5S)-9-Oxa-3-azabicyclo[3.3.1]nonan-3-yl)-N-(2-((R)-4-cyano-thiazolidin-3-yl)-2-oxoethyl)quinoline-4-carboxamide]: in data set [1], inhibition was half-maximal at 0.046 nM (IC50). This compound yielded a microsomal CLint in data set [2] of 78 µL/min/mg. For the same compound, at hFAP (M39-A757), the “hFAP Binding assay k(off)” value came to 0.000068 s⁻¹; the “hFAP Binding assay k(on)” value was found to be 1100000 M⁻¹ s⁻¹; the affinity, expressed as Kd, was 0.066 nM. Moreover, the IC50 in data set [3] was determined as 460 nM. The solubility in the data set “Kinetic solubility” was found to be 480 µM (≈ 217 µg/mL). Also, the “rHep CLint” value in data set [4] is 44 μL/min/1E6.
With `CC1(CC(F)F)CN(c2ccc3nccc(C(=O)NCC(=O)N4CSC[C@H]4C#N)c3c2)C1` [Example 133, (R)—N-(2-(4-Cyanothiazolidin-3-yl)-2-oxoethyl)-6-(3-(2,2-difluoroethyl)-3-methylazetidin-1-yl)quinoline-4-carboxamide], the half-inhibitory concentration (IC50) in data set [1] was determined as 0.1 nM. The compound also came in with a microsomal CLint in data set [2] of 40 µL/min/mg. On hFAP (M39-A757), the “hFAP Binding assay k(off)” value was 0.000073 s⁻¹, the “hFAP Binding assay k(on)” value came to 1200000 M⁻¹ s⁻¹ and the dissociation constant Kd worked out at 0.066 nM. For the same compound, the half-maximal inhibitory concentration (IC50) in data set [3] is 370 nM. This compound also yielded a solubility in the data set “Kinetic solubility” of less than 380 µM. Also, the “rHep CLint” value in data set [4] came to 8.8 μL/min/1E6.
Compound `CC(F)(F)CC1CN(c2ccc3nccc(C(=O)NCC(=O)N4CSC[C@H]4C#N)c3c2)C1` [Example 140, (R)—N-(2-(4-Cyanothiazolidin-3-yl)-2-oxoethyl)-6-(3-(2,2-difluoropropyl)-azetidin-1-yl)quinoline-4-carboxamide] returned an IC50 in data set [1] of 0.1 nM. The compound further yielded a microsomal CLint in data set [2] of 32 µL/min/mg. At hFAP (M39-A757), the “hFAP Binding assay k(off)” value is 0.00016 s⁻¹, the “hFAP Binding assay k(on)” value came out at 2600000 M⁻¹ s⁻¹ and the Kd stood at 0.064 nM. Besides, the IC50 in data set [3] worked out at 840 nM. Moreover, the concentration in solution in the data set “Kinetic solubility” (solubility) was 39 µM (≈ 17.9 µg/mL). In data set [4], the “rHep CLint” value came to 7.7 μL/min/1E6.
The compound `COC1CN(c2ccc3nccc(C(=O)NCC(=O)N4CSC[C@H]4C#N)c3c2)C1` [Example 66, (R)—N-(2-(4-Cyanothiazolidin-3-yl)-2-oxoethyl)-6-(3-methoxyazetidin-1-yl)quinoline-4-carboxamide] yielded a half-maximal inhibitory concentration (IC50) in data set [1] of 0.077 nM. In data set [2], the intrinsic metabolic clearance (microsomal CLint) was less than 3 µL/min/mg. On hFAP (M39-A757), the “hFAP Binding assay k(off)” value was 0.00022 s⁻¹, the “hFAP Binding assay k(on)” value turned out to be 26000000 M⁻¹ s⁻¹ and the dissociation constant (Kd) amounted to 0.035 nM. The IC50 in data set [3] was 490 nM. In the data set “Kinetic solubility”, this compound registered a solubility of 210 µM (≈ 86.4 µg/mL). In addition, the “rHep CLint” value in data set [4] is less than 1 μL/min/1E6.
In turn, `N#C[C@@H]1CSCN1C(=O)CNC(=O)c1ccnc2ccc(-n3ccc4c(F)cc(F)cc43)cc12` [Example 119, (R)—N-(2-(4-Cyanothiazolidin-3-yl)-2-oxoethyl)-6-(4,6-difluoro-1H-indol-1-yl)quinoline-4-carboxamide] displayed an IC50 in data set [1] of 0.16 nM. The same compound registered an intrinsic metabolic clearance (microsomal CLint) in data set [2] of 68 µL/min/mg. Further, on hFAP (M39-A757), the “hFAP Binding assay k(off)” value is 0.00031 s⁻¹, the “hFAP Binding assay k(on)” value amounted to 610000 M⁻¹ s⁻¹ and the Kd stood at 0.39 nM. Moreover, the IC50 in data set [3] was 76 nM. Moreover, the solubility in “Kinetic solubility” worked out at 1 µM (≈ 0.477 µg/mL). For the same compound, the “rHep CLint” value in data set [4] was 27 μL/min/1E6.
